Experiments:
1205Lu melanoma cells [1] = experiment: Apoptosis by flow cytometry (AnnexinV-FITC/PI) of cells on MAF-derived ECM; type: cell-based; conditions: 10 μM Imatinib in presence of 2 μM Vemurafenib, 48 h, 1205Lu on 3D-ECM
Method: Cell cycle profiles were determined by flow cytometry analysis of propidium iodide (PI)-stained cells. Melanoma cells cultured onto cell-derived matrices and treated with or without 2 μM vemurafenib for 48 h were washed, fixed in 80% ethanol and incubated at −20° C. for 24 h. Cells were then stained for 20 min at 37° C. in buffer containing 40 μg/ml PI and 20 μg/ml ribonuclease A from bovine pancreas. Cell cycle profiles were collected on a FACS Canto. Cell death was evaluated by flow cytometry following staining with AnnexinV/PI (eBioscience).

DDR2 = target: T1, DDR2 (Homo sapiens, UniProt Q16832); experiment: Type I collagen-mediated DDR2 tyrosine phosphorylation in melanoma cells (immunoblot); type: cell-based; conditions: data not shown
T1 sequence (Q16832 22-855): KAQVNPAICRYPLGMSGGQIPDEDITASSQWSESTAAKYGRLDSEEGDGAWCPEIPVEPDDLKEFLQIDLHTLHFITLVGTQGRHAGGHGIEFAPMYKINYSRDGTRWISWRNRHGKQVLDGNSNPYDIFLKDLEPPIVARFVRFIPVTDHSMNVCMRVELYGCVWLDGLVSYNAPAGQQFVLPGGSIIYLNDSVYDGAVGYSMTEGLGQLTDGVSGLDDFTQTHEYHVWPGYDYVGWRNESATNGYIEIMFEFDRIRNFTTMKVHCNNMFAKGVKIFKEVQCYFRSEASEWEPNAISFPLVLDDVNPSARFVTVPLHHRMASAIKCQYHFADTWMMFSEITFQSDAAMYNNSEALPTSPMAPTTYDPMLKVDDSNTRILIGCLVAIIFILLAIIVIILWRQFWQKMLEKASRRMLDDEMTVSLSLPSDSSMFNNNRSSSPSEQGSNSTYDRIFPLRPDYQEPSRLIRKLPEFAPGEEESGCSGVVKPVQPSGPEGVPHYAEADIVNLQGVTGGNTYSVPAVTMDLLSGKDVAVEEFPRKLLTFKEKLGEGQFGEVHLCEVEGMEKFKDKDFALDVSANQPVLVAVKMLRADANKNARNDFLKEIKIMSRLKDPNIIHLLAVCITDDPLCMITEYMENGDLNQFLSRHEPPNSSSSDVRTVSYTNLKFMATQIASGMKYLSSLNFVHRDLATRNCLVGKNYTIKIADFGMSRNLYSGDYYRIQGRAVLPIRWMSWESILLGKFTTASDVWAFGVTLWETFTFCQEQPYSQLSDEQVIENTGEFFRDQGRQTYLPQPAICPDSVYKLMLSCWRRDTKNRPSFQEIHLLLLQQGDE

1205Lu melanoma cells [2] = conditions: Kaplan-Meier, 1205Lu melanoma-bearing mice
Method: Mouse experiments were carried out in accordance with the Institutional Animal Care and the local ethical committee. […] Tumor was measured by caliper and the volume was calculated using the formula: V=tumor width×tumor length 2×0.5. When tumor reached 100 mm^3, mice were randomly grouped into control and test groups. […] Mice in control group were treated with vehicle. […] After animal sacrifice tumors were dissected, fixed in formalin and embedded in paraffin.

type I collagen-mediated DDR2 tyrosine phosphorylation (DDR2) | Compound | apoptosis (AnnexinV/PI cytometry) (1205Lu melanoma cells [1]) | Median time to progression (1205Lu melanoma cells [2])
efficiently abrogated | Cc1ccc(NC(=O)c2ccc(CN3CCN(C)CC3)cc2)cc1Nc1nccc(-c2cccnc2)n1 [Imatinib, (4-(4-methylpiperazin-l-yhnethyl)-N-[4-methyl-3-(4-pyridin-3-yl)pyrimidin-2-ylamino)phenyl-benzamide)] | Induction of apoptosis | 
 | CCCS(=O)(=O)Nc1ccc(F)c(C(=O)c2c[nH]c3ncc(-c4ccc(Cl)cc4)cc23)c1F [Vemurafenib] |  | 36 days

Reference: US20210244737A1, “COMPOSITIONS FOR TREATING MELANOMA” (INSERM (INSTITUT NATIONAL DE LA SANTÉ ET DE LA RECHERCHE …, priority 2018, published 2021)
